{"source": "patent US20230398134A1", "about": "“SOLID DISPERSIONS OF CANNABIDIOL” (INDENA S.P.A., priority 2020, published 2023)", "key": {"[1]": {"assay": "Solubility in fasted-state simulated intestinal fluid (FaSSIF, pH 6.5)", "type": "physicochemical", "settings": "FaSSIF pH 6.5, excess solid, 2 hours stirring at room temperature, filtered 0.45 μm", "procedure": "(§1) The solubility of the solid powder dispersion of CBD 2, prepared as described in Example 1, was evaluated in simulated biological fluids. […] For the purposes of the present description, the term “mechanical mixture” means a combination of one or more solids amalgamated by mixing techniques not involving the use of any solvent.\n(§2) The solubility studies in different biologically relevant media of the solid dispersion prepared according to Example 1 were conducted to evaluate its behaviour in the intestine under fed and fasted conditions. The solubility studies were conducted in FaSSIF (pH 6.5) and FeSSIF (pH 5).\n(§3) 10-20 mL of FaSSIF and FeSSIF were placed in 40 mL glass vials. An amount of solid dispersion prepared according to Example 1, and an amount of mechanical mixture prepared according to Example 2, in excess of the expected saturated solubility, was added to the vials; the resulting mixtures were maintained under stirring for 2 hours at room temperature. The mixtures were filtered through 0.45 μm PTFE membrane filters. The filtered solutions were analysed with HPLC instrumentation.\n10-20 mL of FaSSIF was placed in 40 mL glass vials. […] The mixtures were filtered through 0.45 μm PTFE membrane filters. The filtered solutions were analysed with HPLC instrumentation."}, "[2]": {"assay": "Solubility in fed-state simulated intestinal fluid (FeSSIF, pH 5)", "type": "physicochemical", "settings": "FeSSIF pH 5, excess solid, 2 hours stirring at room temperature, filtered 0.45 μm, HPLC (Table 2)", "procedure": "as §1, §2, §3"}}}
{"smiles": "C=C(C)[C@@H]1CCC(C)=C[C@H]1c1c(O)cc(CCCCC)cc1O", "note": "[Cannabidiol 2, 2-[(1R,6R)-3-methyl-6-(prop-1-en-2-yl)-cyclohex-2-enyl]-5-pentylbenzen-1,3-diol]", "values": [{"measurement": "Cannabidiol 2 (mg/mL) concentration", "setting": "[1]; HPLC (Table 2)", "value": 0.067, "unit": "mg/mL"}, {"measurement": "Cannabidiol 2 (mg/mL) concentration", "setting": "[1]; HPLC (Table 3)", "value": 0.067, "unit": "mg/mL"}, {"measurement": "Cannabidiol 2 (mg/mL) concentration", "setting": "[2]", "value": 0.278, "unit": "mg/mL"}]}
